This passage reports EC50 results from publication PMC9095466 (Nature, 2022).

Experiment in all cases: microbe, parasite or virus in culture
What all share (type): cell-based

In test [1] the test system is SARS-CoV-2 lineage B strain (VIDO). The conditions noted are these: Severe acute respiratory syndrome coronavirus 2, 72 h; Calu-3 cells, Fig. 3d, n = 4; read-out: EC50, dsRNA staining, Variant B (VIDO-01).
In test [2] the test system is SARS-CoV-2 P.1 (Gamma). To be noted: Calu-3 cells, n = 4.
Test [3] has as its system SARS-CoV-2 B.1.351 (Beta). The conditions noted are these: Calu-3 cells, n = 4.
Test [4] relates to SARS-CoV-2 B.1.617.2 (Delta). To be noted: Calu-3 cells, n = 4.
Test [5] concerns SARS-CoV-2 B.1.1.7 (Alpha). To be noted: Calu-3 cells, n = 4.

Read-outs that look alike come from different tables or passages of the source.

`CS(=O)(=O)NC(CCC(N)=O)C(=O)NC(Cc1ccccc1)C(=O)NC(CCCNC(=N)N)C(=O)c1nc2ccccc2s1` (stereo not drawn) [Compound N-0385, Ms-QFR-kbt]: the EC50 in test [1] stood at 14.3 nM; in test [2] (Severe acute respiratory syndrome coronavirus 2, 72 h, Fig. 3d, read-out: EC50, dsRNA staining, Variant P.1 (Gamma)) it was 5.4 nM; in test [2] (Severe acute respiratory syndrome coronavirus 2, Fig. 3c, read-out: EC50, N staining, Variant P.1 (Gamma)), 6.5 nM; in test [3] (Severe acute respiratory syndrome coronavirus 2, 72 h, Fig. 3d, read-out: EC50, dsRNA staining, Variant B.1.351 (Beta)) it was 22 nM; in test [3] (Severe acute respiratory syndrome coronavirus 2, Fig. 3c, read-out: EC50, N staining, Variant B.1.351 (Beta)), 12.8 nM; in test [4] (Severe acute respiratory syndrome coronavirus 2, 72 h, Fig. 3d, read-out: EC50, dsRNA staining, Variant B.1.617.2 (Delta)), 26.5 nM. Further, the EC50 in test [4] (Severe acute respiratory syndrome coronavirus 2, Fig. 3c, read-out: EC50, N staining, Variant B.1.617.2 (Delta)) amounted to 13.9 nM; in test [5] (Severe acute respiratory syndrome coronavirus 2, 72 h, Fig. 3d, read-out: EC50, dsRNA staining, Variant B.1.1.7 (Alpha)) it was 2.6 nM; in test [5] (Severe acute respiratory syndrome coronavirus 2, Fig. 3c, read-out: EC50, N staining, Variant B.1.1.7 (Alpha)), 2.1 nM.
